Measurements taken from patent US6664231B1, “Anti-fungal peptides” (priority 1993, dated 2003).
Read-outs that look alike come from different tables or passages of the source. Square brackets hold non-standard residues; d marks the D form. Ends that are not written are not given here. Peptide text beside a SMILES is read from it. 12Ado = NCCCCCCCCCCCC(=O)O; Orn = NCCC[C@H](N)C(=O)O; Dab = NCC[C@H](N)C(=O)O; Aoc = NCCCCCCCC(=O)O

Key:
[1] = test system: mouse RAW 264.7 cells incubated with E. coli O113 LPS; conditions: RAW 264.7 cells with E. coli O113 LPS; concentration reversing LPS growth inhibition by 50%
Experimental: (§1) An in vitro LPS neutralization screening assay for evaluation of Domain III derived peptides was developed (as described in co-owned and co-pending U.S. patent application Ser. No. 08/306,473) which provides both a measure of efficacy of each peptide (EC50) and of the toxicity/growth inhibition of each peptide (IC50).
(§2) The cells were counted and their concentration adjusted to 2×10^5 cells/mL and 100 μL aliquots were added to each well of a 96-well microtitre plate. […] This incubation was performed in the absence or presence of peptides in varying concentrations between 25 ng/mL and 50 μg/mL. […] Cell proliferation was quantitatively measured by the addition of 1 μCi/well [^3H]-thymidine 5 hours after the time of initiation of the assay. After the 15-hour incubation, labeled cells were harvested onto glass fiber filters with a cell harvester (Inotech Biosystems, INB-384, Sample Processing and Filter Counting System, Lansing, Mich.).

[2] = test system: mouse RAW 264.7 cells
Experimental: as §1, §2

[3] = RAW 264.7 cell growth inhibited by 50%

Row | Compound | In Vitro LPS Neutralization EC50 [1] | IC50 (toxicity/growth inhibition of peptide) [2] [µg/mL] | IC50 (toxicity/growth inhibition of peptide) [2, 3]
1 | CC[C@H](C)[C@H](NC(=O)[C@H](CC(C)C)NC(=O)[C@H](Cc1c[nH]c2ccccc12)NC(=O)[C@H](N)CS)C(=O)N[C@@H](CCC(N)=O)C(=O)N[C@@H](CC(C)C)C(=O)N[C@@H](Cc1ccccc1)C(=O)N[C@@H](Cc1c[nH]cn1)C(=O)N[C@@H](CCCCN)C(=O)N[C@@H](CCCCN)C(N)=O [XMP.359P] (H-[dC]WLIQLFHKK-NH2; N-terminus assumed) | 7.31 ± 1.26 µg/mL | >25 | 
2 | CC[C@H](C)[C@H](NC(=O)[C@H](CC(C)C)NC(=O)[C@@H](Cc1c[nH]c2ccccc12)NC(=O)[C@H](N)CCCCN)C(=O)N[C@@H](CCC(N)=O)C(=O)N[C@@H](CC(C)C)C(=O)N[C@@H](Cc1ccccc1)C(=O)N[C@@H](Cc1c[nH]cn1)C(=O)N[C@H](CCCCN)C(=O)N[C@H](CCCCN)C(N)=O [XMP.363P] | >50 µg/mL |  | NA (NA for IC50 means no evidence of decreased RAW cell growth at up to 50 μg/ml)
3 | CC[C@H](C)[C@H](NC(=O)[C@H](CC(C)C)NC(=O)[C@@H](Cc1c[nH]c2ccccc12)NC(=O)[C@@H](CCCCN)NC(C)=O)C(=O)N[C@@H](CCC(N)=O)C(=O)N[C@@H](CC(C)C)C(=O)N[C@@H](Cc1ccccc1)C(=O)N[C@@H](Cc1c[nH]cn1)C(=O)N[C@H](CCCCN)C(=O)N[C@H](CCCCN)C(N)=O [XMP.364P] | >25 µg/mL |  | NA (NA for IC50 means no evidence of decreased RAW cell growth at up to 50 μg/ml)
4 | CC[C@@H](C)[C@@H](NC(=O)[C@@H](CCC(N)=O)NC(=O)[C@@H](CC(C)C)NC(=O)[C@@H](Cc1ccccc1)NC(=O)[C@@H](Cc1c[nH]cn1)NC(=O)[C@@H](CCCCN)NC(=O)[C@@H](CCCCN)NC(C)=O)C(=O)N[C@H](CC(C)C)C(=O)N[C@H](Cc1c[nH]c2ccccc12)C(=O)N[C@H](CCCCN)C(N)=O [XMP.368P] | 1.95 ± 0.11 µg/mL | >25 | 
5 | CC[C@H](C)[C@H](NC(=O)[C@H](CC(C)C)NC(=O)[C@H](Cc1c[nH]c2ccccc12)NC(=O)[C@@H](N)CCCCN)C(=O)N[C@@H](CCCN)C(=O)N[C@@H](CC(C)C)C(=O)N[C@@H](Cc1ccccc1)C(=O)N[C@@H](Cc1c[nH]cn1)C(=O)N[C@@H](CCCCN)C(=O)N[C@@H](CCCCN)C(N)=O [XMP.369P] (H-KWLI[Orn]LFHKK-NH2) | 12.09 ± 0.43 µg/mL |  | NA (NA for IC50 means no evidence of decreased RAW cell growth at up to 50 μg/ml)
6 | CC[C@H](C)[C@H](NC(=O)[C@H](CC(C)C)NC(=O)[C@H](Cc1c[nH]c2ccccc12)NC(=O)[C@H](CCCCN)NC(C)=O)C(=O)N[C@@H](CCCN)C(=O)N[C@@H](CC(C)C)C(=O)N[C@@H](Cc1ccccc1)C(=O)N[C@@H](Cc1c[nH]cn1)C(=O)N[C@@H](CCCCN)C(=O)N[C@@H](CCCCN)C(N)=O [XMP.370P] (Ac-KWLI[Orn]LFHKK-NH2) | NA (NA for EC50 means no evidence neutralization of LPS at up to 50 μg/ml) | >25 | 
7 | CC[C@H](C)[C@H](NC(=O)[C@H](CC(C)C)NC(=O)[C@H](Cc1c[nH]c2ccccc12)NC(=O)[C@@H](N)CCCCN)C(=O)N[C@@H](CCN)C(=O)N[C@@H](CC(C)C)C(=O)N[C@@H](Cc1ccccc1)C(=O)N[C@@H](Cc1c[nH]cn1)C(=O)N[C@@H](CCCCN)C(=O)N[C@@H](CCCCN)C(N)=O [XMP.371P] (H-KWLI[Dab]LFHKK-NH2) | NA (NA for EC50 means no evidence neutralization of LPS at up to 50 μg/ml) | >25 | 
8 | CC[C@H](C)[C@H](NC(=O)[C@H](CC(C)C)NC(=O)[C@H](Cc1c[nH]c2ccccc12)NC(=O)[C@H](CCCCN)NC(C)=O)C(=O)N[C@@H](CCN)C(=O)N[C@@H](CC(C)C)C(=O)N[C@@H](Cc1ccccc1)C(=O)N[C@@H](Cc1c[nH]cn1)C(=O)N[C@@H](CCCCN)C(=O)N[C@@H](CCCCN)C(N)=O [XMP.372P] (Ac-KWLI[Dab]LFHKK-NH2) | >25 µg/mL | >25 | 
9 | CC[C@@H](C)[C@@H](NC(=O)[C@@H](CCC(N)=O)NC(=O)[C@@H](CC(C)C)NC(=O)[C@H](N)CCCCN)C(=O)N[C@H](CC(C)C)C(=O)N[C@H](Cc1c[nH]c2ccccc12)C(=O)N[C@H](CCCCN)C(=O)N[C@H](CCCCN)C(N)=O [XMP.374P] | 13.97 ± 2.02 µg/mL |  | NA (NA for IC50 means no evidence of decreased RAW cell growth at up to 50 μg/ml)
10 | CC[C@@H](C)[C@@H](NC(=O)[C@@H](C)NC(=O)[C@@H](Cc1c[nH]c2ccccc12)NC(=O)[C@@H](CCCCN)NC(=O)[C@H](N)CCCCN)C(=O)N[C@H](CCC(N)=O)C(=O)N[C@H](CC(C)C)C(=O)N[C@H](CCCCN)C(=O)N[C@H](CCCCN)C(N)=O [XMP.375P] (H-[dK][dK][dW][dA][dI][dQ][dL][dK][dK]-NH2) | >50 µg/mL |  | NA (NA for IC50 means no evidence of decreased RAW cell growth at up to 50 μg/ml)
11 | CC[C@@H](C)[C@@H](NC(=O)[C@@H](CCC(N)=O)NC(=O)[C@@H](CC(C)C)NC(=O)[C@@H](CCCCN)NC(=O)[C@H](N)CCCCN)C(=O)N[C@H](C)C(=O)N[C@H](Cc1c[nH]c2ccccc12)C(=O)N[C@H](CCCCN)C(=O)N[C@H](CCCCN)C(N)=O [XMP.376P] (H-[dK][dK][dL][dQ][dI][dA][dW][dK][dK]-NH2) | >50 µg/mL |  | NA (NA for IC50 means no evidence of decreased RAW cell growth at up to 50 μg/ml)
12 | CC[C@H](C)[C@@H]1NC(=O)[C@H](C)NC(=O)[C@H](Cc2c[nH]c3ccccc23)NC(=O)[C@H](CCCCN)NC(=O)[C@H](CCCCN)NC(=O)[C@H](CCCCN)NC(=O)[C@H](CC(C)C)NC(=O)[C@H](CCC(N)=O)NC1=O [XMP.408P] (cyclo(LKKKWAIQ)) | NA (NA for EC50 means no evidence neutralization of LPS at up to 50 μg/ml) |  | NA (NA for IC50 means no evidence of decreased RAW cell growth at up to 50 μg/ml)
13 | CCCCCCCC(=O)N[C@H](CCCCN)C(=O)N[C@H](Cc1c[nH]c2ccccc12)C(=O)N[C@H](CC(C)C)C(=O)N[C@@H](C(=O)N[C@H](CCC(N)=O)C(=O)N[C@H](CC(C)C)C(=O)N[C@H](Cc1ccccc1)C(=O)N[C@H](Cc1c[nH]cn1)C(=O)N[C@H](CCCCN)C(=O)N[C@H](CCCCN)C(N)=O)[C@H](C)CC [XMP.414] | 1.91 ± 0.04 µg/mL |  | 10.96 ± 0.52 µg/mL
14 | CCCCCCCCCCCC(=O)N[C@H](CCCCN)C(=O)N[C@H](Cc1c[nH]c2ccccc12)C(=O)N[C@H](CC(C)C)C(=O)N[C@@H](C(=O)N[C@H](CCC(N)=O)C(=O)N[C@H](CC(C)C)C(=O)N[C@H](Cc1ccccc1)C(=O)N[C@H](Cc1c[nH]cn1)C(=O)N[C@H](CCCCN)C(=O)N[C@H](CCCCN)C(N)=O)[C@H](C)CC [XMP.415] | 1.61 ± 0.03 µg/mL | 6.80 ± 0.14 | 
15 | CC[C@@H](C)[C@@H](NC(=O)[C@@H](CC(C)C)NC(=O)[C@@H](Cc1c[nH]c2ccccc12)NC(=O)[C@@H](CCCCN)NC(=O)CCCCCCCN)C(=O)N[C@H](CCC(N)=O)C(=O)N[C@H](CC(C)C)C(=O)N[C@H](Cc1ccccc1)C(=O)N[C@H](Cc1c[nH]cn1)C(=O)N[C@H](CCCCN)C(=O)N[C@H](CCCCN)C(N)=O [XMP.416] (H-[Aoc][dK][dW][dL][dI][dQ][dL][dF][dH][dK][dK]-NH2) | 4.67 ± 0.27 µg/mL |  | 24.41 ± 0.78 µg/mL
16 | CC[C@@H](C)[C@@H](NC(=O)[C@@H](CC(C)C)NC(=O)[C@@H](Cc1c[nH]c2ccccc12)NC(=O)[C@@H](CCCCN)NC(=O)CCCCCCCCCCCN)C(=O)N[C@H](CCC(N)=O)C(=O)N[C@H](CC(C)C)C(=O)N[C@H](Cc1ccccc1)C(=O)N[C@H](Cc1c[nH]cn1)C(=O)N[C@H](CCCCN)C(=O)N[C@H](CCCCN)C(N)=O [XMP.417] (H-[12Ado][dK][dW][dL][dI][dQ][dL][dF][dH][dK][dK]-NH2; C-terminus assumed) | 3.88 ± 0.20 µg/mL | 11.26 ± 1.30 | 
17 | Ac-PWLIQLFHKK-NH2 [XMP.356P] | 2.72 ± 0.02 µg/mL | >25 | 
18 | GWLIQLFHKK-NH2 [XMP.388P] | 8.08 ± 1.52 µg/mL |  | NA (NA for IC50 means no evidence of decreased RAW cell growth at up to 50 μg/ml)
19 | H-HHWLIQLHH-NH2 [XMP 337P] | >50 µg/mL |  | NA (NA for IC50 means no evidence of decreased RAW cell growth at up to 50 μg/ml)
20 | H-KKLLLLLKK-NH2 [XMP.385P] | 2.56 ± 0.23 µg/mL | >25 | 
21 | H-KKLLLQLKK-NH2 [XMP.383P] | NA (NA for EC50 means no evidence neutralization of LPS at up to 50 μg/ml) |  | NA (NA for IC50 means no evidence of decreased RAW cell growth at up to 50 μg/ml)
